Data on 16 compounds can be found in patent US7115642B2, “Substituted diphenyl isoxazoles, pyrazoles and oxadiazoles useful for treating HCV infection” (priority 2003, dated 2006).

The nature of data set [1]: Cytotoxicity assay (Cell Titer Glo). The data set is classed as cell-based. To be noted: human; 48 hr with compound, ATP-dependent Cell Titer Glo assay; read-out: IC50 in cytotoxicity assay (number of viable cells). The essentials:
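HCV replicon-bearing liver cells (5-2 Luc, 9–13 or Huh-7) grown 24 h at 37° C, then exposed to a range of compound concentrations for 48 h at 37° C. Viable cell number by ATP-dependent luminescence (Cell Titer Glo).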
A general note: Cellular ATP, detected with luciferase, serves as a proxy for viable cell number.

In data set [2] the test system is HCV nonstructural protein NS5A or NS3 in 9–13 replicon cells. Nature of the data set: Quantitative Western blot assay. The data set is classed as cell-based, Hepatitis C virus. Conditions: read-out: Western IC50. Here is the method:
Alternatively, the inhibitory activity of the compounds can be confirmed using a quantitative Western immunoblot assay utilizing antibodies specific for HCV non-structural proteins, such as NS3, NS4A NS5A and NS5B. In one embodiment of this assay, replicon cells are treated with varying concentrations of test compound to determine the concentration of test compound that yields a 50% reduction in the amount of a non-structural protein produced as compared to a control sample (IC50). A single non-structural protein may be quantified or multiple non-structural proteins may be quantified. Antibodies suitable for carrying out such immunoblot assays are available commercially (e.g., from BIODESIGN International, Saco, Me.).
Certain exemplary compounds of the invention were also tested for their ability to inhibit HCV replication using a quantitative Western blot analysis with antibodies specific for the HCV nonstructural protein NS5A or NS3. Actively dividing 9–13 replicon cells were seeded into Swell plates at a density of 1×10^5 cells/well in a volume of 2 ml/well and incubated at 37° C. and 5% CO2 for 24 hours. Various concentrations of test compounds (in a volume of 10 ul) were added to the wells and the cells incubated for another 48 hours. Protein samples were prepared from the cultured cells, resolved on a SDS-PAGE gel and transferred to a nitrocellulose membrane. The membrane was blocked with 5% non-fat milk in PBS for 1 hour at room temperature. Primary antibody (anti NS5A antibody; BIODESIGN International, Saco, Me. or anti NS3 antibody, Rigel) incubation was performed for 1 hour at room temperature, after which the membrane was washed 3 times (for 15 min per time) with PBST (PBS plus 0.1% Tween 20). Horseradish peroxidase conjugated secondary antibody incubation was performed for 1 hour at room temperature and the membrane was washed 3 times (for 15 min per time) with PBST. The membrane was then soaked in substrate solution (Pierce) and exposed to a film or quantified using an imager. In this assay, the amount of test compound that yielded a 50% reduction in the amount of NS5A or NS3 protein translated as compared to a control sample (IC50) was determined.
In TABLE 1, a value of “+” indicates an IC50 of 10 μM or less in the specified assay; a value of “−” indicates an IC50 of greater than 10 μM in the specified assay.

For data set [3], the system named is HCV replicon (5-2 Luc replicon-comprising cells). Nature of the data set: HCV replicon assay (luciferase). To be noted: read-out: Replicon IC50. The data set is classed as cell-based, Hepatitis C virus. The essentials:
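Readout: IC50 from a 50% drop in luciferase signal (Bright-Glo, luminometer), scored + (≤10 μM) or − (>10 μM). Compounds added at various concentrations to 5-2 Luc replicon cells (Huh7 background), pre-incubated 24 h, then incubated 24 h more before reading.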

The mark [4] stands for this setting: Hepatitis C virus, 9–13 replicon cells, NS5A or NS3 Western blot.
The mark [5] stands for this setting: Hepatitis C virus, 5-2 Luc replicon cells, luciferase readout.
Where [6] appears, read: 9–13 replicon cells, NS5A or NS3 Western blot.
Where [7] appears, read: 5-2 Luc replicon cells, luciferase readout.

Like-named read-outs stand apart in the source and are kept apart here. Some results are limits rather than exact numbers.

As usually defined, the IC50 is the point on the concentration scale where inhibition reaches its midpoint. For the compound `O=C(Nc1cc(-c2cc(-c3c(Cl)cccc3Cl)no2)ccc1F)C(Cl)Cl` [Compound 1, 2,2-Dichloro-N-[3-[3-(2,6-dichlorophenyl)-5-isoxazolyl]-6-fluorophenyl]Acetamide], in data set [1], the concentration for half-maximal inhibition (IC50) at 48 h is greater than 10 µM. The IC50 in data set [2] (setting [4]) and in data set [3] (setting [5]) was less than 10 µM in each case.
For `O=C(Nc1cccc(-c2cc(-c3c(Cl)cccc3Cl)on2)c1)C(Cl)Cl` [Compound 5, 2,2-Dichloro-N-[3-[5-(2,6-dichlorophenyl)-3-isoxazolyl]phenyl]Acetamide], the IC50 at 48 h in data set [1] was greater than 10 µM. In addition, the IC50 in data set [2] (setting [4]) and in data set [3] (setting [5]) was less than 10 µM throughout.
For `O=C(Nc1cccc(-c2cc(-c3c(F)cccc3Cl)no2)c1)C(Cl)Cl` [Compound 27, 2,2-Dichloro-N-[3-[3-(2-chloro-6-fluorophenyl)-5-isoxazolyl]phenyl]Acetamide], the IC50 at 48 h in data set [1] was greater than 5 µM. Further, the IC50 in data set [2] (setting [4]) and in data set [3] (setting [5]) was less than 10 µM throughout.
Consider `COC(=O)c1ccc(Cl)c(-c2cc(-c3cccc(NC(=O)C(Cl)Cl)c3)on2)c1Cl` [Compound 135, 2,2-Dichloro-N-[3-[3-(3-carbomethoxy-2,6-dichlorophenyl)-5-isoxazolyl]phenyl]Acetamide], for which the IC50 at 48 h in data set [1] was greater than 10 µM. Moreover, the IC50 in data set [2] (setting [4]) and in data set [3] (setting [5]) was greater than 10 µM throughout.
Turning to `O=C(Nc1ccc(F)c(-c2cc(-c3c(Cl)cccc3Cl)no2)c1)C(Cl)Cl` [Compound 13, 2,2-Dichloro-N-[3-[3-(2,6-dichlorophenyl)-5-isoxazolyl]4-fluorophenyl]Acetamide], in data set [1], the IC50 at 48 h was greater than 10 µM. The IC50 in data set [2] (setting [4]) and in data set [3] (setting [5]) was less than 10 µM each time.
As a reminder, the melting point is the temperature of the solid-liquid transition. `O=C(Nc1cccc(-c2cc(-c3c(Cl)cccc3Cl)no2)c1)C(Cl)Cl` [Compound 9, 2,2-Dichloro-N-[3-[3-(2,6-dichlorophenyl)-5-isoxazolyl]phenyl]Acetamide] registered a melting point of 167 °C. For the same compound, the IC50 in data set [2] (Hepatitis C virus) is less than 10 µM. Further, the IC50 in data set [3] (Hepatitis C virus) was less than 10 µM.
For `O=C(Nc1cccc(-c2cc(-c3cccc(Cl)c3Cl)no2)c1)C(Cl)Cl` [Compound 3, 2,2-Dichloro-N-[3-[3-(2,3-dichlorophenyl)-5-isoxazolyl]phenyl]Acetamide], in data set [1], the IC50 at 48 h is greater than 10 µM. The IC50 in data set [2] (setting [4]) was less than 10 µM; in data set [3] (setting [5]), greater than 10 µM.
For the compound `Cc1cccc(-c2cc(-c3cccc(NC(=O)C(Cl)Cl)c3)on2)c1C` [Compound 163, 2,2-Dichloro-N-[3-[3-(2,3-dimethylphenyl)-5-isoxazolyl]phenyl]Acetamide], the IC50 at 48 h in data set [1] is greater than 10 µM. Also, the IC50 in data set [2] (setting [4]) and in data set [3] (setting [5]) was greater than 10 µM each time.
For `Cc1ccc(F)c(-c2cc(-c3cccc(NC(=O)C(Cl)Cl)c3)on2)c1Cl` [Compound 15, 2,2-Dichloro-N-[3-[3-(2-chloro-6-fluoro-3-methylphenyl)-5-isoxazolyl]phenyl]Acetamide], the IC50 at 48 h in data set [1] is greater than 10 µM. Besides, the IC50 in data set [2] (setting [4]) and in data set [3] (setting [5]) was less than 10 µM in each case.
Take `O=C(Nc1cccc(-c2cc(-c3c(F)cccc3S(=O)(=O)N3CCOCC3)no2)c1)C(Cl)Cl` [Compound 21, 2,2-Dichloro-N-[3-[3-[2-fluoro-(6-N-morpholinosulfamoyl)phenyl]-5-isoxazolyl]-phenyl]Acetamide]: the IC50 in data set [2] (setting [6]) and in data set [3] (setting [7]) was less than 10 µM in each case.
In the case of `O=C(CI)Nc1cccc(-c2cc(-c3c(Cl)cccc3Cl)no2)c1` [Compound 101, 2-Iodo-N-[3-[3-(2,6-dichlorophenyl)-5-isoxazolyl]phenyl]Acetamide], the IC50 at 48 h in data set [1] was greater than 10 µM. Further, the IC50 was greater than 10 µM in data set [2] (setting [4]) and less than 10 µM in data set [3] (setting [5]).
Regarding `O=C(Nc1cccc(-c2cc(-c3c(Cl)cccc3OC3CCCC3)no2)c1)C(Cl)Cl` [Compound 699], the IC50 in data set [2] (setting [6]) and in data set [3] (setting [7]) was less than 10 µM in each case.
In the case of `CC(C)(C)OC(=O)NC1CCN(c2cccc(Cl)c2-c2cc(-c3cccc(NC(=O)C(Cl)Cl)c3)on2)C1` (stereo not drawn) [Compound 672], the IC50 in data set [2] (setting [6]) and in data set [3] (setting [7]) was less than 10 µM in each case.
Consider `COC(=O)[C@@H](NC(=O)c1cccc(Cl)c1-c1cc(-c2cccc(NC(=O)C(Cl)Cl)c2)on1)C(C)C` [Compound 695], for which the IC50 in data set [2] (setting [6]) was less than 10 µM; in data set [3] (setting [7]), greater than 10 µM.
In the case of `O=C(O)c1cccc(F)c1-c1cc(-c2cccc(NC(=O)C(Cl)Cl)c2)on1` [Compound 703], the IC50 in data set [2] (setting [6]) and in data set [3] (setting [7]) was greater than 10 µM in each case.
For the compound `O=C(Nc1cccc(-c2cc(-c3c(Cl)cccc3OCC3CC3)no2)c1)C(Cl)Cl` [Compound 709], the IC50 in data set [2] (setting [6]) and in data set [3] (setting [7]) was less than 10 µM throughout.
